Patent publication US20120183536A1, “METHODS OF USING CORTICOTROPIN-RELEASING FACTOR FOR THE TREATMENT OF CANCER” (priority 2009, published 2012)
Read-outs that look alike come from different tables or passages of the source.

Columns and labels:
malignant brain tumor = assay: Clinical study: patients with malignant brain tumor, tumor size by MRI and survival; type: in vivo, human
Procedure: Patients with malignant brain tumor were treated with 2 mg/day (1 mg dose, twice daily) of either human CRF subcutaneously. […] Additionally, of the 30 patients who had received treatment for at least 6 months, 10 experienced a decrease in tumor size.

U87 Fluc brain tumor = test system: U87 Fluc brain tumor
Source text: The results were obtained with SCID mice bearing brain tumors produced by injection with the human glioblastoma cell line U87 Flue. The U87 Flue cell line was created by stably transducing U87 cells with a lentiviral construct containing the luc gene.

[1] = test system: Colo205 human colon tumor cells; assay: Colo205 human colon tumor xenograft in nu/nu mice, tumor volume; type: in vivo
Procedure: In one study, 8-12 week old female nu/nu mice were injected with 1×10^6 Colo205 human colon tumor cells subcutaneously. Once tumors developed and reached an average size of 100-150 mg, mice received administration of: (1) saline (control) (twice daily, subcutaneous); (2) CRF (100 μg/kg) (twice daily, subcutaneous); (3) CRF (200 μg/kg) (twice daily, subcutaneous); (4) bevacizumab (Avastin®) (5 mg/kg) (twice weekly, intraperitoneal); or (5) CRF (200 μg/kg) (twice daily, subcutaneous) and bevacizumab (Avastin®) (5 mg/kg) (twice weekly, intraperitoneal) (FIG. 11A). Body weight and tumor volume were measured twice a week until the endpoint of the experiment, i.e., the earlier of either 60 days or a tumor volume of 1000 mm^3.

[2] = test system: MX-1 human breast carcinoma; assay: MX-1 human breast carcinoma xenograft in nu/nu mice, tumor volume; type: in vivo
Procedure: (§1) In another study, 8-12 week old female nu/nu mice were injected with 1 mm^3 tumor fragments of MX-1 human breast carcinoma subcutaneously. Once tumors developed and reached an average size of 80-120 mg, mice received administration of: (1) saline (control) (twice daily, subcutaneous); (2) CRF (100 μg/kg) (twice daily, subcutaneous); (3) CRF (200 μg/kg) (twice daily, subcutaneous); (4) bevacizumab (Avastin®) (5 mg/kg) (twice weekly, intraperitoneal); or (5) CRF (200 μg/kg) (twice daily, subcutaneous) and bevacizumab (Avastin®) (5 mg/kg) (twice weekly, intraperitoneal) (FIG. 13A). Body weight and tumor volume were measured twice a week until the endpoint of the experiment, i.e., the earlier of either 60 days or achieving a tumor weight of 1.5 g.).

[3] = test system: human Non-Small Cell Lung Carcinoma (NSCLC) tumor cell lines; assay: human Non-Small Cell Lung Carcinoma xenograft in nu/nu mice, tumor volume; type: in vivo
Procedure: as §1, with “a second” for “another”, “of” for “of MX-1”, “Non-Small Cell Lung Carcinoma (NSCLC) tumor cell lines” for “breast carcinoma”, “12A).” for “13A).”, “2” for “1.5”

[4] = test system: brain tumor in metastatic patients; assay: Clinical study: metastatic patients, brain tumor size by MRI and survival; type: in vivo, human; settings: 2 mg/day s.c.
[5] = low dose of CRF, 30 μg/kg s.c. twice daily
[6] = CRF 100 or 200 μg/kg twice daily, subcutaneous
[7] = of the 3 metastatic patients of FIG. 10
[8] = bevacizumab 5 mg/kg twice weekly, intraperitoneal

corticorelin acetate [CRF] was tested, and the “survival after CRF treatment, some patients” value (malignant brain tumor; FIGS. 8 and 9) was 1-2 years, the “patients exhibiting a reduction in tumor size at the last time point measured” value (malignant brain tumor; of the 10 patients of FIG. 9, 2 mg/day s.c.) was 8 patients and the “patients exhibiting a reduction in tumor size” value (malignant brain tumor; of the 20 patients of FIG. 8, 2 mg/day (1 mg twice daily) s.c.) was 6 patients. The “patients exhibiting a maintenance in tumor size” value (malignant brain tumor; of the 20 patients of FIG. 8, 2 mg/day s.c.) was 5 patients, the “patients exhibiting a reduction in tumor size by over 50%” value (malignant brain tumor; of the 20 patients of FIG. 8, after 9 months of treatment, 2 mg/day s.c.) was 3 patients and the “patients experiencing a decrease in tumor size” value (malignant brain tumor; of the 30 patients treated for at least 6 months, 2 mg/day s.c.) was 10 patients. The “survival of the overwhelming majority of patients” value (malignant brain tumor; projected survival 3-6 months, FIGS. 8 and 9) was “live well beyond the projected 3-6 months”, the “reduction in tumor size” value (malignant brain tumor; two of the patients, 2 mg/day s.c.) was “around 90%” and the “brain tumor progression (photon emission)” value (U87 Fluc brain tumor; [5]) was “did not progress or progressed more slowly”. The “mean survival time (comparison)” value (U87 Fluc brain tumor; [5]) was “between mice, that were administered a high dose of CRF, and mice that had received no treatment or were administered dexamethasone”, the “mice still alive at the end of the 80-day study period” value (U87 Fluc brain tumor; [5]) was 60% and the “survival compared with untreated, dexamethasone or chemotherapeutic agents” value (U87 Fluc brain tumor; [5]) was “survived longer”. For the same molecule, the “tumor volume compared to control” value [1, 6] was “reduction in tumor volume”, the “tumor volume compared to control” value [2, 6] was “reduction in tumor volume” and the “tumor volume compared to control” value [3, 6] was “reduction in tumor volume”. For the same molecule, the “response of metastatic patients to treatment” value [4] was “responded very favorably”, the “metastatic patients exhibiting survival beyond the projected 3-6 months” value [4, 7] was 3 patients and the “metastatic patients showing a reduction in tumor size at the last timepoint measured” value [4, 7] was 2 patients.

With `Cn1nnc2c(C(N)=O)ncn2c1=O` [TMZ, temozolomide, reference compound] the “mice still alive at the end of the 80-day study period” value (U87 Fluc brain tumor; TMZ 40 mg/kg intraperitoneally 5 days/week) was 40%.

`O=NN(CCCl)C(=O)NCCCl` [BiCNU, carmustine, reference compound] was tested, and the “brain tumor progression (photon emission)” value (U87 Fluc brain tumor; BiCNU 20 mg/kg intraperitoneally 5 days/week) was “continued to grow”.

With “bevacizumab (Avastin®): angiogenesis inhibitor bevacizumab (Avastin®) [reference compound]” the “tumor volume compared to control” value [1, 8] was “reduction in tumor volume”, the “tumor volume compared to control” value [2, 8] was “reduction in tumor volume” and the “tumor volume compared to control” value [3, 8] was “reduction in tumor volume”.
